{"source": "paper PMC3997483", "about": "“Aminostyrylbenzofuran Directly Reduces Oligomeric Amyloid-β and Reverses Cognitive Deficits in Alzheimer Transgenic Mice” (PLoS ONE, 2014)", "key": {"[1]": {"assay": "Metabolic stability in liver microsomes", "assay_type": "in vitro ADME", "conditions": "mouse liver microsomes"}, "[2]": {"assay": "in vitro", "conditions": "monkey, liver microsomes"}, "[3]": {"assay": "Dissociation constant (pKa), GLpKa titration", "assay_type": "physicochemical", "conditions": "aqueous 150 mM NaCl solution", "procedure": "(§1) Dissociation constant (pKa) and partition coefficient (log P) Dissociation constant (pKa) and partition coefficient (log P) of KMS88009 were measured by a pH-method using GLpKa (Sirius, UK). pKa was measured by titrating KMS88009 solution and calculated from the shape of the titration curve. […] Log P of KMS88009 was calculated by a two-phase acid-base titration in a mixture of water and octanol. Three separate potentiometric titrations of KMS88009 were carried out at 23 ℃ in various octanol-water (0.15 M KCl) mixtures (0.5% to 50% octanol). The initial pH was adjusted to 10.0 with standardized 0.5 M NaOH prior to each titration. Titrations were performed with standardized 0.5 M HCl to pH 1.8. The pKa and log P values were calculated using RefinementPro software (Sirius, UK). Values are expressed as the mean ± SD of 3 independent experiments."}, "[4]": {"assay": "Single dose oral toxicity study", "assay_type": "in vivo", "conditions": "SD, rat, in vivo, po", "procedure": "(§2) KMS88009 was orally administered by gavage at dose levels of 0 (vehicle), 1,000 and 2,000 mg/kg. Each group consisted of 3 rats. Vehicle was DMSO/tween-20/saline (3.3∶3.3∶93.4) mixture. Administration volume of vehicle and KMS88009 was 10 mL/kg. Mortality, physical abnormalities and signs of pain/distress were daily observed in all animals. Body weight of each animal was measured before the administration and on the 1st, 4th, 8th, 11th and 14th days.\n(§3) All data for single and 2-week repeated oral dose toxicity studies were expressed as the mean ± SD Difference between control and treated groups were evaluated with one-way analysis of variance (ANOVA) followed by Dunnett's test. Value P<0.05 was taken as being statistically significant. Statistical analyses were performed using GraphPad Prism software (USA)."}, "[5]": {"system": "SD rats", "assay": "Single dose oral toxicity study", "assay_type": "in vivo", "conditions": "rats", "procedure": "as §2, §3"}, "[6]": {"assay": "Pharmacokinetics IV/PO in rats", "assay_type": "in vivo, SD rats", "conditions": "for AUC(0-t): read-out: AUC0–24h", "procedure": "(§4) Pharmacokinetics profile of KMS88009 was obtained using ICR mice, SD rats, beagle dogs and cynomolgus monkeys. Animals were fasted overnight before KMS88009 administration. Mice were divided into 2 groups to receive KMS88009 as a single dose of 2.1 mg/kg intravenous (IV) bolus or 10 mg/kg orally (PO) by gavage. Additionally, KMS88009 was administered orally to estimate the BBB penetration in mice (10, 30 and 100 mg/kg). […] Dog received KMS88009 either as an IV bolus (1 mg/kg) via the great saphenous vein or by oral gavage (4 mg/kg). KMS88009 was administrated to monkeys as an IV bolus (1 mg/kg) via the femoral vein or by oral gavage (4 mg/kg). Vehicle for IV and PO administration was DMSO/tween-20/saline (3.3∶19.8∶[…]). […]. Brain samples were weighed and Daunce-homogenized in 10-fold volume of ice-chilled 4% bovine serum albumin (BSA) solution at room temperature. Plasma and brain homogenates were kept frozen at −70°C until analysis. The levels of KMS88009 were determined by the LC-MS/MS analysis. Pharmacokinetic parameters, time to the maximum concentration (Tmax), maximum concentration (Cmax), elimination half-life (T1/2), volume of distribution (Vd), clearance (Cl) and mean residual time (MRT), of KMS88009 were calculated based on plasma concentration-time data by a non-compartmental method using WinNonlin Version 5.2 (Pharsight, USA). Area under the curve from 0 to 24 hr (AUC0-24h) and area under the curve from 0 to infinity (AUCINF) were obtained by linear and log linear trapezoidal summations."}, "[7]": {"assay": "Pharmacokinetics IV/PO in monkeys", "assay_type": "in vivo, cynomolgus monkeys", "conditions": "for AUC(0-t): read-out: AUC0–24h", "procedure": "as §4, with “KMS88009 was administrated to monkeys as an IV bolus (1 mg/kg) via the femoral vein or by oral gavage (4 mg/kg).” left out"}, "[8]": {"assay": "Partition coefficient (log P), octanol-water titration", "assay_type": "physicochemical", "conditions": "23 ℃", "procedure": "as §1"}, "[9]": {"conditions": "cynomolgus monkey, plasma, monkey IV 0.77 mg/kg"}, "[10]": {"conditions": "cynomolgus monkey, plasma, monkey PO 5.6 mg/kg"}, "[11]": {"conditions": "cynomolgus monkey, monkey IV 0.77 mg/kg, plasma"}, "[12]": {"conditions": "cynomolgus monkey, monkey PO 5.6 mg/kg, plasma"}}, "note": "Marks after values point to notes of the source that are not given here.", "data": [{"smiles": "COc1ccc2cc(C=Cc3ccc(N(C)C)cc3)oc2c1", "note": "[KMS88009, 6-methoxy-2-(4-dimethylaminostyryl) benzofuran]", "values": [{"measurement": "half-life at 5 µM", "setting": "[1]", "value": "1.088 ± 0.01", "unit": "h"}, {"measurement": "remaining at 1 h, 5 µM", "setting": "[1]; read-out: Remaining % of parent molecule at 60 min.", "value": "52.4 ± 0.3", "unit": "%"}, {"measurement": "half-life at 5 µM", "setting": "[2]", "value": "0.587 ± 0.01", "unit": "h"}, {"measurement": "remaining at 1 h, 5 µM", "setting": "[2]", "value": "30.9 ± 0.2", "unit": "%"}, {"measurement": "pKa", "setting": "[3]", "value": "1.5 ± 0.12"}, {"measurement": "LD50 at 14 days", "setting": "[4]", "value": "> 2000", "unit": "mg/kg"}, {"measurement": "Mortality (dead animals / total number of animals)", "setting": "[5]; single PO 1,000 mg/kg", "value": "0 / 3 ^a"}, {"measurement": "Mortality (dead animals / total number of animals)", "setting": "[5]; single PO 2,000 mg/kg", "value": "0 / 3"}, {"measurement": "MRT last", "setting": "[6]; SD, plasma, rat IV 1.25 mg/kg", "value": 1.8, "unit": "h"}, {"measurement": "Vd", "setting": "[6]; SD, plasma, rat IV 1.25 mg/kg", "value": 8, "unit": "L/kg"}, {"measurement": "clearance", "setting": "[6]; SD, plasma, rat IV 1.25 mg/kg", "value": 13.3, "unit": "mL/min/kg"}, {"measurement": "half-life", "setting": "[6]; SD, plasma, rat IV 1.25 mg/kg", "value": 7.2, "unit": "h"}, {"measurement": "MRT last", "setting": "[6]; SD, plasma, rat PO 2.5 mg/kg", "value": 4, "unit": "h"}, {"measurement": "half-life", "setting": "[6]; SD, plasma, rat PO 2.5 mg/kg", "value": 4, "unit": "h"}, {"measurement": "AUC(0-inf)", "setting": "[6]; SD, rat IV 1.25 mg/kg, plasma", "value": 1670, "unit": "ng·h/mL"}, {"measurement": "AUC(0-t)", "setting": "[6]; SD, rat IV 1.25 mg/kg, plasma", "value": 1640, "unit": "ng·h/mL"}, {"measurement": "AUC(0-inf)", "setting": "[6]; SD, rat PO 2.5 mg/kg, plasma", "value": 929, "unit": "ng·h/mL"}, {"measurement": "AUC(0-t)", "setting": "[6]; SD, rat PO 2.5 mg/kg, plasma", "value": 908, "unit": "ng·h/mL"}, {"measurement": "BA", "setting": "[6]; rat PO […] vs IV 1.25 mg/kg", "value": 27.8, "unit": "%"}, {"measurement": "MRT last", "setting": "[7]; [9]", "value": "3.6 ± 0.5", "unit": "h"}, {"measurement": "Vd", "setting": "[7]; [9]", "value": "4.4 ± 1.1", "unit": "L/kg"}, {"measurement": "clearance", "setting": "[7]; [9]", "value": 8.33, "unit": "mL/min/kg"}, {"measurement": "half-life", "setting": "[7]; [9]", "value": "5.8 ± 0.8", "unit": "h"}, {"measurement": "MRT last", "setting": "[7]; [10]", "value": "5.9 ± 0.6", "unit": "h"}, {"measurement": "Tmax", "setting": "[7]; [10]", "value": "2.7 ± 1.2", "unit": "h"}, {"measurement": "half-life", "setting": "[7]; [10]", "value": "4.3 ± 0.2", "unit": "h"}, {"measurement": "AUC(0-inf)", "setting": "[7]; [11]", "value": "1590 ± 576", "unit": "ng·h/mL"}, {"measurement": "AUC(0-t)", "setting": "[7]; [11]", "value": "1540 ± 550", "unit": "ng·h/mL"}, {"measurement": "AUC(0-inf)", "setting": "[7]; [12]", "value": "3920 ± 1480", "unit": "ng·h/mL"}, {"measurement": "Cmax", "setting": "[7]; [12]", "value": "505 ± 78.3", "unit": "ng/mL"}, {"measurement": "AUC(0-t)", "setting": "[7]; [12]", "value": "3810 ± 1430", "unit": "ng·h/mL"}, {"measurement": "BA", "setting": "[7]; monkey PO 5.6 mg/kg vs IV 0.77 mg/kg", "value": 34.1, "unit": "%"}, {"measurement": "logP", "setting": "[8]", "value": "2.4 ± 0.19"}]}]}
